Each block holds one compound with its values, some of them ahead of it.
Columns and labels:
[1] = tested on: savory taste, human panelists; assay: Umami/savory flavor experiments using human panelists (trained panel, difference from reference); assay type: in vivo; details: 12 mM MSG + cpd vs reference 12 mM MSG + 100 μM IMP
Protocol: General Panelist Selection: Basic screening of sensory taste testers: Potential panelists were tested for their abilities to rank and rate intensities of solutions representing the five basic tastes. Panelists ranked and rated intensity of five different concentrations of each of the five following compounds: sucrose (sweet), sodium chloride (salty), citric acid (sour), caffeine (bitter), and monosodium glutamate (savory). In order to be selected for participation in testing, panelists needed to correctly rank and rate samples for intensity, with a reasonable number of errors
Preliminary Taste Tests: The panelists selected in the above procedure were deemed qualified for performing Preliminary Taste Testing procedures. The preliminary taste tests are used to evaluate new compounds for intensity of basic tastes and off-tastes. A small group of panelists (n=5) taste approximately 5 concentrations of the compound (range typically between 1-100 μM, in half-log cycles, e.g., 1, 3, 10, 30, and 100 μM) in water and in a solution of 12 mM MSG to evaluate enhancement. Panelists rate the five basic tastes (sweet, salty, sour, bitter, and savory) as well as off-tastes (such as chemical, metallic, sulfur) on a labeled magnitude scale. Samples are served in 10 mL portions at room temperature. The purpose of the test is to determine the highest concentration at which there is no objectionable off-taste, and determine if obvious savory taste or enhancement of savory taste exists at any of the concentrations tested.
Trained Panelist Selection: A trained expert panel was used to further evaluate compounds that had been tested with the preliminary taste test.
Panelists for the trained panel were selected from the larger group of qualifying taste panelists. Panelists were further trained on savory taste by ranking and rating experiments using MSG and IMP combinations. Panelists completed a series of ranking, rating, and difference from reference tests with savory solutions. In ranking and rating experiments, panelists evaluated easy MSG concentrations (0, 6, 18, 36 mM) and more difficult MSG concentrations (3, 6, 12, 18 mM MSG) in water.
Compound testing with Trained Panel: Compounds tested by the trained panel were evaluated in difference from reference experiments. […] Test samples were solutions with varying amounts of MSG, IMP, and the compound.
Compounds were tested against the reference in samples with and without 12 mM MSG. All samples were presented in 10 ml volumes at room temperature. Two sessions were completed for each compound tested to evaluate panel reproducibility.

[2] = target: T1, hT1R1/hT1R3 umami receptor (Homo sapiens, UniProt Q7RTX0+Q7RTX1); assay: Umami taste enhancement activity assay (EC50 ratio vs. MSG); assay type: cell-based
T1 construct: expressed in transfected cells; host or cells: HEK293 derivative stably expressing Gα15, clone I-17, expression induced with mifepristone
T1 sequence (Q7RTX1 21-841): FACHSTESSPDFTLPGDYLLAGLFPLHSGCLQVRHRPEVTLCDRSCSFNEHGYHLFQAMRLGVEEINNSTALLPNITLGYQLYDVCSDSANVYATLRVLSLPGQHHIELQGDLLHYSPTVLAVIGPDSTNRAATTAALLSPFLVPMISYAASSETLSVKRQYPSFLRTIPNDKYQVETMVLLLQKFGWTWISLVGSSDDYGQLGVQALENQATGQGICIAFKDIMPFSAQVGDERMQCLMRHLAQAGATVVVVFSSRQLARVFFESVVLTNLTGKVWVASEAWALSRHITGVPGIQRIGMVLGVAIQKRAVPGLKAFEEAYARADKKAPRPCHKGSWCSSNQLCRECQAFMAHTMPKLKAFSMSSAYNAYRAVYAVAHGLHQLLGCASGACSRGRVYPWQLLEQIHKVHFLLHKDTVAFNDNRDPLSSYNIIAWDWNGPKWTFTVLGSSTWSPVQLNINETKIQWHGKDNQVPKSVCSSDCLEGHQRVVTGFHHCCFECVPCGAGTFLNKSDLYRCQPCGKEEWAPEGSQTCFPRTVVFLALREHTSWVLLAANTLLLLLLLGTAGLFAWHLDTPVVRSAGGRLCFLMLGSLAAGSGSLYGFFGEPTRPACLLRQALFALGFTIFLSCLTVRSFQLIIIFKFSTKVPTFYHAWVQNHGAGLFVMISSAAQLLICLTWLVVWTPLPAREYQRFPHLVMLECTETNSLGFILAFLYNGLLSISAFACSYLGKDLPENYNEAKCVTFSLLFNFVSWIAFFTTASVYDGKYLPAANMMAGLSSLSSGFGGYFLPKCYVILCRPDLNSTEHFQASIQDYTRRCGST
T1 sequence (Q7RTX0 21-852): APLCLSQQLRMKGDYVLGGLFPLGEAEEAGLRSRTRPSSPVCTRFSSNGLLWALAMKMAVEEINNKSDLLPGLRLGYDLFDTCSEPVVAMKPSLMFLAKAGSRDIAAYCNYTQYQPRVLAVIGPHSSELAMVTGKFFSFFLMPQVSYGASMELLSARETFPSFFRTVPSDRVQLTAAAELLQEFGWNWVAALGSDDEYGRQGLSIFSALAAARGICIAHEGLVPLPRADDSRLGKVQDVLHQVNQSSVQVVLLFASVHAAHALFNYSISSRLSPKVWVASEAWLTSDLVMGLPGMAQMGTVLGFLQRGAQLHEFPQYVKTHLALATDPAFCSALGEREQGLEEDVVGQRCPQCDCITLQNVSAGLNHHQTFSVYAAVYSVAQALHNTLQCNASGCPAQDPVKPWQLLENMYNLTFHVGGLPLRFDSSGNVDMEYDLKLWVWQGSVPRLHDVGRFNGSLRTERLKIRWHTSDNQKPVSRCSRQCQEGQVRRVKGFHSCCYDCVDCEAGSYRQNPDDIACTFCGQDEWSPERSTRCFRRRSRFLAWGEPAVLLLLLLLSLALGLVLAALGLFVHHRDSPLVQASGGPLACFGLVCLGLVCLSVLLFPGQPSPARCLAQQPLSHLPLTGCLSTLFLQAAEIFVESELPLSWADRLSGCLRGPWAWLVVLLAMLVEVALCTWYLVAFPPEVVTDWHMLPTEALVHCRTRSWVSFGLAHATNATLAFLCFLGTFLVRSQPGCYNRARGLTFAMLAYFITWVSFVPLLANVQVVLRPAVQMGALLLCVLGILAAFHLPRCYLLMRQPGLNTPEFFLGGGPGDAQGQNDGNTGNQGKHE
Protocol: A series of measurements of the dose response is run in solutions comprising MSG alone, then a second dose response is run with MSG in combination with predetermined amounts of a candidate compound of Formula (I) at the same time.
Typical compound concentrations tested were 30 μM, 10 μM, 3 μM, 1 μM, 0.3 μM, 0.1 μM and 0.03 μM. The relative efficacy of compounds of Formula (I) at enhancing the receptor was determined by calculating the magnitude of a shift in the EC50 for monosodium glutamate. Enhancement was defined as a ratio (EC50R) corresponding to the EC50 of monosodium glutamate, determined in the absence of the test compound, divided by the EC50 of monosodium glutamate, determined in the presence of the test compound.
Stated alternatively, “EC50 ratio” as compared to MSG is calculated based on the following definitions: EC50 Ratio vs. MSG=EC50 (MSG)/EC50(MSG+[Compound]) • wherein “[compound]” refers to the concentration of the compound of Formula (I) used to elicit (or enhance or potentiate) the MSG dose response.

[3] = tested on: sweet taste, human panelists; assay: Sweet flavor and sweet flavor enhancement measurement using human panelists; assay type: in vivo
Protocol: Overview: Various concentrations of the experimental compound (normally aqueous solutions containing 1, 3, 10, and 30 uM concentrations of the experimental compound; and optionally 50 uM and/or 100 uM concentrations) are individually tasted by trained human subjects and rated for intensity of several taste attributes. The experimental compound may also be tasted when dissolved in a “key tastant” solution.
Procedure: An appropriate quantity of the experimental compound is dissolved in water typically also containing 0.1% ethanol, which is utilized to aid initial dispersion of the compound in the aqeuous stock solution. When appropriate, the experimental compound may also be dissolved in aqueous solutions of a “key tastant” (for example, 4% sucrose, 6% sucrose, 6% fructose/glucose, or 7% fructose/glucose, at pH 7.1 or 2.8).
Five human Subjects are used for preliminary taste tests. […] Subjects refrain from eating or drinking (except water) for at least 1 hour prior to the test. Subjects eat a cracker and rinse with water four times to clean the mouth before taste tests.
The aqueous solutions are dispensed in 10 ml volumes into 1 oz. sample cups and served to the Subjects at room temperature. Samples of the experimental compound dissolved in an appropriate key tastant (e.g., 4% sucrose, 6% fructose, or 6% fructose/glucose, typically at pH 7.1) at various concentrations of the experimental compound may also be served to the Subjects. Subjects also receive a reference sample of the key tastant (e.g., sucrose, fructose, or fructose/glucose, typically at pH 7.1) at different concentrations for comparison.
Subjects taste the solutions, starting with the lowest concentration, and rate intensity of the following attributes on the Labeled Magnitude Scale (LMS) for sweetness, saltiness, sourness, bitterness, savory (umami), and other (off-taste). Subjects rinse three times with water between tastings. If a particular concentration elicits an undesirable characteristic or off-taste, subsequent tastings of higher concentrations are eliminated. After a break, Subjects taste a solution of the key tastant (e.g., 4% sucrose, 6% fructose, or 6% fructose/glucose, typically at pH 7.1) without the experimental compound. Then solutions of the key tastant plus experimental compound are tasted in increasing order of concentration. The key tastant solution can be retasted for comparison with key tastant+experimental compound solutions if necessary. Discussion among panelists is permitted.
Subjects rate the difference in intensity of the test sample compared to the reference sample for the key attribute on a scale of −5 (much less sweet than the reference) to +5 (much more sweet than the reference). A score of 0 indicates the test sample is equally as sweet as the reference. […]

EC50 ratio (enhanced the effectiveness of monosodium glutamate) ([2]; compound present at 0.03 μM): 6.92
SMILES: CCCC(CCC)NC(=O)c1ccc2c(c1)OCO2 [Example 1, N-(heptan-4-yl)benzo[d][1,3]dioxole-5-carboxamide]
Taste Data: concentration of cpd with 12 mM MSG that is as strong as 12 mM MSG + 100 μM IMP [1]: 12 mM MSG + 3 μM cpd as strong as

EC50 ratio (enhanced the effectiveness of monosodium glutamate) ([2]; compound present at 0.1 μM): 4.9
SMILES: COC(=O)[C@@H](CC(C)C)NC(=O)c1ccc2c(c1)OCO2 [Example 6, (R)-methyl 2-(benzo[d][1,3]dioxole-6-carboxamido)-4-methylpentanoate]
Taste Data: concentration of cpd with 12 mM MSG that is as strong as 12 mM MSG + 100 μM IMP [1]: 12 mM MSG + 10 μM cpd as strong as

SMILES: COC[C@@H](CC(C)C)NC(=O)c1ccc(C)c(C)c1 [Example 71, (R)—N-(1-methoxy-4-methylpentan-2-yl)-3,4-dimethylbenzamide]
Taste Data: concentration of cpd with 12 mM MSG that is as strong as 12 mM MSG + 100 μM IMP [1]: 12 mM MSG + 3 μM cpd as strong as

SMILES: COC(=O)[C@@H](CC(C)C)NC(=O)c1cc(C)c(C)o1 [Example 98, (R)-methyl-2-(2,3-dimethylfuran-5-carboxamido)-4-methylpentanoate]
Taste Data: concentration of cpd with 12 mM MSG that is as strong as 12 mM MSG + 100 μM IMP [1]: 12 mM MSG + 10 μM cpd as strong as

SMILES: COC[C@@H](CC(C)C)NC(=O)c1ccc(OC)c(C)c1 [Example 104, 4-Methoxy-N-(1-methoxymethyl-3-methyl-butyl)-3-methyl-benzamide]
Taste Data: concentration of cpd with 12 mM MSG that is as strong as 12 mM MSG + 100 μM IMP [1]: 12 mM MSG + 3 μM cpd as strong as

EC50 ratio (enhanced the effectiveness of monosodium glutamate) ([2]; compound present at 0.3 μM): 6.51
SMILES: COc1ccc(CNC(=O)C(=O)NCCc2ccccn2)c(OC)c1 [Example 123, N-(2,4-Dimethoxy-benzyl)-N′-(2-pyridin-2-yl-ethyl)-oxalamide]
Taste Data: concentration of cpd with 12 mM MSG that is as strong as 12 mM MSG + 100 μM IMP [1]: 12 mM MSG + 1 μM cpd as strong as

SMILES: Cc1c(F)c(F)c(C(=O)NC2CCCCC2C)c(F)c1F (stereo not drawn) [Example 162, 2,3,5,6-tetrafluoro-4-methyl-N-(2-methylcyclohexyl)benzamide]
Perceived Equivalent Sweet Solution ([3]; 10 uM compound + 6% fructose/glucose, pH 7.1): ≥ 8% fructose/glucose
Perceived Equivalent Sweet Solution ([3]; 10 uM compound + 7% fructose/glucose, pH 2.8): ≥ 9% fructose/glucose

SMILES: Cc1cccc(C)c1C(=O)NC1CCCCC1C (stereo not drawn) [Example 168, 2,6-dimethyl-N-(2-methylcyclohexyl)benzamide]
Perceived Equivalent Sweet Solution ([3]; 30 uM compound + 6% fructose/glucose, pH 7.1): Equal to 8% fructose/ % fructose/glucose

SMILES: O=C(Nc1ccc2c(c1)OCO2)N1Cc2ccccc2C1 [Example 174, N-(3,4-methylenedioxyphenyl)isoindoline-2-carboxamide]
Perceived Equivalent Sweet Solution ([3]; 50 uM compound + 4% sucrose, pH not measured or controlled): 6% sucrose

Ec50 ratio (vs. MSG) ([2]; Table D, compound @ 0.3 uM): 2.7
SMILES: CCOc1ccc(/C=C/C(=O)NC(C)CC)cc1 (stereo not drawn) [Example D13, (E)-N-sec-butyl-3-(4-ethoxyphenyl)acrylamide]

Umami EC50 ratio ([2]; Table E, compound concentration not given): 10.66
SMILES: CC1CCCCC1NC(=O)c1ccc(Cl)c(Cl)c1 (stereo not drawn) [Example E54, 3,4-dichloro-N-(2-methylcyclohexyl)benzamide]
